{"source": "patent US5587442A", "about": "“Polyglycomers” (priority 1994, dated 1996)", "key": {"[1]": {"biological_target": "T1, concanavalin A (Con A) (Canavalia ensiformis, UniProt P02866)", "T1 construct": "purchased Calbiochem", "assay": "Inhibition of Con A induced erythrocyte agglutination (hemagglutination inhibition assay)", "format": "cell-based", "procedure": "To assess the activity of our polymers, we compared the ability of the polymer to inhibit erythrocyte agglutination by Con A with that of several controls including the monovalent carbohydrate derivative methyl-α-D-glucopyranoside and the divalent-glucose substituted 7-oxanorbornene 3.\nThe agglutination inhibition assays were performed according to standard protocols. (Osawa, et al., Methods Enzymol. 28:323-327, 1972.) The assay was as follows: Pure lyophilized Con A was dissolved in HEPES buffer with 100 mM CaCl2, pH 8.0, and dialyzed into phosphate buffered saline (PBS, 25 mM sodium phosphate, 0.15M NaCl), pH 7.2, for the assay. Protein solution concentration was estimated from UV absorbance measurements at 280 nm.\nRabbit red blood cells were stored as a 10% suspension in Alsever's solution and washed 3× with PBS before the assay. For the assay, the cells were pelleted and resuspended in PBS with 0.5% bovine serum albumin.\nPolymeric inhibitors were purified by precipitation or by gel filtration. The inhibition results obtained for compounds purified by either method were consistent. The minimum concentration of inhibitor required to inhibit four hemagglutinating doses of Con A was determined. After preincubation with the inhibitor, a 2% suspension of erythrocytes was added. The samples were examined for agglutination after 1 hour at room temperature.\nSubstrates were incubated with four agglutinating doses of Con A, prior to the addition of rabbit erythrocytes. The concentration of glucose moieties in solution required for inhibition was determined for each substrate within a two-fold dilution."}, "[2]": {"biological_target": "L-selectin", "assay": "ELISA: inhibition of L-selectin-IgG binding to immobilized GlyCAM-1", "procedure": "(§1) The affinity of compounds 8, 9 and 10 for each selectin were tested in an ELISA assay that compares their ability to inhibit binding of the selectins to immobilized GlyCAM-1. Because all of the selectins bind to GlyCAM-1 (FIG. 4) this assay provides insight into the relative affinities and specificities of the identified GlyCAM-1 component for each selectin.\n(§2) The ELISAs were executed by the following protocol: An antibody to GlyCAM-1 was immobilized in a microtiter well. GlyCAM-1 was added. Selectin-IgG chimeras, which were biotinylated, were added to streptavidin-alkaline phosphatase conjugate. The binding of the selectin-IgGbiotin .cndot.strepavidin-alkaline phosphatase to GlyCAM-1 was monitored by UV. Para-nitrophenolate is produced from alkaline phosphatase catalyzed hydrolysis of paranitrophenolphosphate (Qed). The inhibitory effects of saccharides 8-10 on selectin-IgG binding to immobilized GlyCAM-1 were measured by this method."}, "[3]": {"tested_on": "E-selectin", "assay": "ELISA: inhibition of E-selectin-IgG binding to immobilized GlyCAM-1", "conditions": "compared among 8, 9, 10", "procedure": "as §1, §2"}, "[4]": {"tested_on": "P-selectin", "assay": "ELISA: inhibition of P-selectin-IgG binding to immobilized GlyCAM-1", "conditions": "compared among 8, 9, 10", "procedure": "as §1, §2"}, "[5]": {"tested_on": "Con A", "conditions": "cited from earlier work"}, "[6]": {"conditions": "Table 2, four agglutinating doses of Con A, rabbit erythrocytes, 1 hour at room temperature, pH 7.2, within a two-fold dilution"}}}
{"molecule": "O=C(OCCC1OC(CO)C(O)C(O)C1O)C1C2C=CC(O2)C1C(=O)OCCC1OC(CO)C(O)C(O)C1O", "note": "(centres unmarked) [7-oxanorbornene 3]", "values": [{"measurement": "Inhibiting dose compared with methyl-α-D-glucopyranoside (in words)", "setting": "[1]", "value": "comparable"}, {"measurement": "Inhibiting Dose [carbohydrate residues]", "setting": "[1]; [6]", "value": 0.025, "unit": "M"}]}
{"molecule": "CCCO[C@@H]1O[C@H](CO)[C@@H](O[C@@H]2O[C@@H](C)[C@@H](O)[C@@H](O)[C@@H]2O)[C@H](O[C@@H]2O[C@H](CO)[C@H](O)[C@H](OS(=O)(=O)O)[C@H]2O)[C@H]1O", "note": "[Compound 8]", "values": [{"measurement": "IC50 for preventing L-selectin binding (in words)", "setting": "[2]", "value": "in the mmolar range"}, {"measurement": "relative effectiveness in binding to E-selectin (in words)", "setting": "[3]", "value": "considerably more effective than the 6-sulfate 9 or the 3,6-disulfate 10"}, {"measurement": "relative effectiveness at blocking P-selectin binding (in words)", "setting": "[4]", "value": "the worst at blocking binding"}]}
{"molecule": "CCCO[C@@H]1O[C@H](CO)[C@@H](O[C@@H]2O[C@@H](C)[C@@H](O)[C@@H](O)[C@@H]2O)[C@H](O[C@@H]2O[C@H](COS(=O)(=O)O)[C@H](O)[C@H](O)[C@H]2O)[C@H]1O", "note": "[Compound 9]", "values": [{"measurement": "IC50 for preventing L-selectin binding (in words)", "setting": "[2]", "value": "in the mmolar range"}, {"measurement": "relative effectiveness at blocking P-selectin binding (in words)", "setting": "[4]", "value": "slightly better"}]}
{"molecule": "CCCO[C@@H]1O[C@H](CO)[C@@H](O[C@@H]2O[C@@H](C)[C@@H](O)[C@@H](O)[C@@H]2O)[C@H](O[C@@H]2O[C@H](COS(=O)(=O)O)[C@H](O)[C@H](OS(=O)(=O)O)[C@H]2O)[C@H]1O", "note": "[Compound 10]", "values": [{"measurement": "IC50 for preventing L-selectin binding (in words)", "setting": "[2]", "value": "in the mmolar range"}, {"measurement": "relative binding to L-selectin (in words)", "setting": "[2]; compared among 8, 9, 10", "value": "bound no more tightly to L-selectin than the 3- and 6-sulfo analogs 8 and 9"}, {"measurement": "relative effectiveness at blocking P-selectin binding (in words)", "setting": "[4]", "value": "the most active"}]}
{"molecule": "CO[C@H]1O[C@H](CO)[C@@H](O)[C@H](O)[C@H]1O", "note": "[methyl-α-D-glucopyranoside, reference compound]", "values": [{"measurement": "Inhibiting Dose [carbohydrate residues]", "setting": "[1]; [6]", "value": 0.05, "unit": "M"}]}
{"molecule": "CO[C@H]1O[C@H](CO)[C@@H](O)[C@H](O)[C@@H]1O", "note": "[methyl-α-D-mannopyranoside, reference compound]", "values": [{"measurement": "Inhibiting Dose [carbohydrate residues]", "setting": "[1]; Table 3, hemagglutination inhibition assay, mono- and multivalent carbohydrate derivatives", "value": 0.05, "unit": "M"}]}
{"molecule": "fucose", "values": [{"measurement": "binding of fucose to Con A (in words)", "setting": "[5]; Goldstein 1976", "value": "does not bind"}]}
{"molecule": "mannose", "values": [{"measurement": "binding to Con A (in words), calorimetric data", "setting": "[5]; compared with glucose", "value": "slightly higher affinity"}]}
